Test results published in BindingDB's records for doi:10.1016/j.bmcl.2012.12.095 (Astrazeneca, 2013).

Assay: Antagonist activity at CCR1 receptor in human THP1 cells assessed as inhibition of MIP-1alpha-induced chemotaxis after 2 hrs by fluorescence assay

- IC50: 68 nM
SMILES: CC(=O)Nc1ccc(O)cc1OC[C@@H](N)CN1CCC2(CC1)Cc1ccccc1O2
